Measurements published in publication PMC4014698 (Pharmaceuticals, 2014).
Converted amounts (≈) assume the structure as drawn. Non-standard residues stand in square brackets, D forms with d. Residues, ends and D or L forms follow the SMILES beside them.

Experiments:
[1] = tested on: P. aeruginosa strain CP204; details: source cystic fibrosis patient; Mueller-Hinton medium, 37 °C, 24 h, 5 × 10^5 CFU/mL; three sets of determinations
Excerpt: (§1) P. aeruginosa strains used are as follows: strain PAO1 was isolated from a human wound in 1955 in Australia; strain WR5 was isolated from a burn patient at Walter Reed Army Hospital, Washington, DC, USA, in 1976 and is a natural toxA^− mutant, but is virulent in experimental mouse models; strain PAK was originally isolated at Memorial University, St. John’s, Newfoundland, Canada, and is widely used in the analysis of pili; strain PA14 was originally isolated as a clinical isolate in 1995 at the Massachusetts General Hospital, Boston, MA, USA and is virulent in a variety of plant and animal models of infection; strain M2 was originally isolated in 1975 from the gastrointestinal tract of a healthy CF1 mouse, University of Cincinnati College of Medicine, and Shriners Burns Institute, Cincinnati, OH, USA and is virulent in a burn mouse model of P. aeruginosa infection; and strain CP204 was isolated from a cystic fibrosis patient in 1989 at the National Jewish Medical and Research Center, Denver, CO, USA. All strains have been maintained at −80 °C in the laboratory of Michael Vasil, University of Colorado, School of Medicine.
(§2) The minimal inhibitory concentration (MIC) is defined as the lowest peptide concentration that inhibited bacterial growth. MICs were measured by a standard microtiter dilution method in Mueller Hinton (MH) medium. Briefly, cells were grown overnight at 37 °C in MH broth and were diluted in the same medium. […] The plates were incubated at 37 °C for 24 h, and the MICs were determined.

[2] = tested on: P. aeruginosa strain M2; details: source burn mouse model; Mueller-Hinton medium, 37 °C, 24 h, 5 × 10^5 CFU/mL; three sets of determinations
Excerpt: as §1, §2

[3] = tested on: P. aeruginosa strain PAK; details: Mueller-Hinton medium, 37 °C, 24 h, 5 × 10^5 CFU/mL; three sets of determinations
Excerpt: as §1, §2

[4] = tested on: P. aeruginosa strain PAO1; details: source human wound; Mueller-Hinton medium, 37 °C, 24 h, 5 × 10^5 CFU/mL; three sets of determinations
Excerpt: as §1, §2

[5] = tested on: P. aeruginosa strain PA14; details: Mueller-Hinton medium, 37 °C, 24 h, 5 × 10^5 CFU/mL; three sets of determinations
Excerpt: as §1, §2

[6] = tested on: P. aeruginosa strain WR5; details: source burn patient; Mueller-Hinton medium, 37 °C, 24 h, 5 × 10^5 CFU/mL; three sets of determinations
Excerpt: as §1, §2

[7] = tested on: A. baumannii strain 1012; type: cell-based, Acinetobacter baumannii; details: source sputum; Mueller-Hinton medium, 37 °C, 24 h, 5 × 10^5 CFU/mL; three sets of determinations
Excerpt: (§3) All the A. baumannii strains used in this study were (1) obtained from the collection of Dr. Anthony A. Campagnari at the University of Buffalo and originally isolated from different patients and organs/tissues (strain 649, blood; strain 689, groin; strain 759, gluteus; strain 821, urine; strain 884, axilla; strain 899, perineum; strain 964, throat; strain 985, pleural fluid and strain 1012, sputum); (2) were purchased from the American Type Culture Collection (ATCC, Manassas, VA, USA) (strain ATCC 17978, fatal meningitis; and strain ATCC 19606, urine).
(§4) The minimal inhibitory concentration (MIC) is defined as the lowest peptide concentration that inhibited bacterial growth. MICs were measured by a standard microtiter dilution method in Mueller Hinton (MH) medium. Briefly, cells were grown overnight at 37 °C in MH broth and were diluted in the same medium. Serial dilutions of the peptides were added to the microtiter plates in a volume of 50 µL, followed by the addition of 50 µL of bacteria to give a final inoculum of 5 × 10^5 colony-forming units (CFU)/mL. The plates were incubated at 37 °C for 24 h, and the MICs were determined.

[8] = tested on: A. baumannii strain 689; type: cell-based, Acinetobacter baumannii; details: source groin; Mueller-Hinton medium, 37 °C, 24 h, 5 × 10^5 CFU/mL; three sets of determinations
Excerpt: as §3, §4

[9] = tested on: A. baumannii strain 985; type: cell-based, Acinetobacter baumannii; details: source pleural fluid; Mueller-Hinton medium, 37 °C, 24 h, 5 × 10^5 CFU/mL; three sets of determinations
Excerpt: as §3, §4

[10] = tested on: A. baumannii strain 899; type: cell-based, Acinetobacter baumannii; details: source perineum; Mueller-Hinton medium, 37 °C, 24 h, 5 × 10^5 CFU/mL; three sets of determinations
Excerpt: as §3, §4

[11] = tested on: A. baumannii strain 964; type: cell-based, Acinetobacter baumannii; details: source throat; Mueller-Hinton medium, 37 °C, 24 h, 5 × 10^5 CFU/mL; three sets of determinations
Excerpt: as §3, §4

[12] = tested on: A. baumannii strain ATCC 17978; type: cell-based, Acinetobacter baumannii; details: ATCC 17978, 24 h
Excerpt: as §3, §4

[13] = tested on: Acinetobacter baumannii (11 different isolates); type: cell-based; details: geometric mean of the MIC values from 11 different isolates of A. baumannii; Table 3A
Excerpt: as §3, §4
Antibacterial activities against six strains of P. aeruginosa and eleven strains of A. baumannii are compared in Table 3. Geometric mean of MIC values was calculated to provide an overall view of antimicrobial activity of different analogs. It is clear that our peptides were effective in killing the microorganisms tested. Compared to a dramatic reduction in hemolytic activity, antibacterial activity of D-piscidin 1 and D-dermaseptin S4 analogs against eleven strains of A. baumannii maintained the same level (within 2-fold) upon the substitution of “specificity determinant(s)” (Table 3).

[14] = tested on: human erythrocytes; assay: Hemolytic activity (HC50); type: cell-based; details: for Hemolytic activity HC50: concentration giving 50% hemolysis after 18 h at 37 °C, 1% human erythrocytes in PBS pH 7.4, hemoglobin release at 570 nm, 100% control water (Figure 7)
Method: Hemoglobin release was determined spectrophotometrically at 570 nm.
From these plots, the HC50 values, the peptide concentration that produces 50% hemolysis of human red blood cells after 18 hours in the standard microtiter dilution method was determined.

[15] = tested on: A. baumannii strain 884; assay: MIC, microtiter dilution; type: cell-based, Acinetobacter baumannii; details: source axilla; Mueller-Hinton medium, 37 °C, 24 h, 5 × 10^5 CFU/mL; three sets of determinations
Excerpt: as §3, §4

[16] = tested on: A. baumannii strain ATCC 19606; assay: MIC, microtiter dilution; type: cell-based, Acinetobacter baumannii; details: source urine; Mueller-Hinton medium, 37 °C, 24 h, 5 × 10^5 CFU/mL; three sets of determinations
Excerpt: as §3, §4

[17] = tested on: A. baumannii strain 649; assay: MIC, microtiter dilution; type: cell-based, Acinetobacter baumannii; details: source blood; Mueller-Hinton medium, 37 °C, 24 h, 5 × 10^5 CFU/mL; three sets of determinations
Excerpt: as §3, §4

[18] = tested on: A. baumannii strain 821; assay: MIC, microtiter dilution; type: cell-based, Acinetobacter baumannii; details: source urine; Mueller-Hinton medium, 37 °C, 24 h, 5 × 10^5 CFU/mL; three sets of determinations
Excerpt: as §3, §4

[19] = tested on: A. baumannii strain 759; assay: MIC, microtiter dilution; type: cell-based, Acinetobacter baumannii; details: source gluteus; Mueller-Hinton medium, 37 °C, 24 h, 5 × 10^5 CFU/mL; three sets of determinations
Excerpt: as §3, §4

[20] = tested on: Pseudomonas aeruginosa (6 different isolates); details: geometric mean of the MIC values from 6 different isolates of P. aeruginosa; Table 3B
Excerpt: as §1, §2
Geometric mean of MIC values was calculated to provide an overall view of antimicrobial activity of different analogs.

| SMILES | MIC CP204 [1] [µM] | MIC M2 [2] [µM] | MIC PAK [3] [µM] | MIC PAO1 [4] [µM] | MIC PA14 [5] [µM] | MIC WR5 [6] [µM] | MIC 1012 [7] [µM] | MIC 689 [8] [µM] | MIC 985 [9] [µM] | MIC 899 [10] [µM] | MIC 964 [11] [µM] | MIC ATCC17978 [12] [µM] | MIC GM [13] [µM] | Hemolytic activity HC50 [14] [µM] | MIC 884 [15] [µM] | MIC ATCC19606 [16] [µM] | MIC 649 [17] [µM] | MIC 821 [18] [µM] | MIC 759 [19] [µM] | MIC GM [20] [µM] | also measured |
| --- | --- | --- | --- | --- | --- | --- | --- | --- | --- | --- | --- | --- | --- | --- | --- | --- | --- | --- | --- | --- | --- |
| CC[C@@H](C)[C@@H](NC(=O)[C@@H](Cc1c[nH]cn1)NC(=O)[C@@H](Cc1c[nH]cn1)NC(=O)[C@@H](Cc1ccccc1)NC(=O)[C@H](N)Cc1ccccc1)C(=O)N[C@H](Cc1ccccc1)C(=O)N[C@H](CCCNC(=N)N)C(=O)NCC(=O)N[C@H](CCCCN)C(=O)N[C@@H](C(=O)N[C@H](Cc1c[nH]cn1)C(=O)N[C@@H](C(=O)NCC(=O)N[C@H](CCCCN)C(=O)N[C@@H](C(=O)N[C@@H](C(=O)N[C@H](Cc1c[nH]cn1)C(=O)N[C@H](CCCNC(=N)N)C(=O)N[C@H](CC(C)C)C(=O)N[C@@H](C(=O)N[C@@H](C(=O)NCC(N)=O)[C@H](C)O)C(C)C)[C@H](C)CC)[C@H](C)O)C(C)C)C(C)C [D-Piscidin 1 I9K] (H-[dF][dF][dH][dH][dI][dF][dR]G[dK][dV][dH][dV]G[dK][dT][dI][dH][dR][dL][dV][dT]G-NH2) | 48.3 (≈ 125 µg/mL) | 48.3 (≈ 125 µg/mL) | 12.1 (≈ 31.3 µg/mL) | 48.3 (≈ 125 µg/mL) | 24.2 (≈ 62.6 µg/mL) | 24.2 (≈ 62.6 µg/mL) | 6.0 (≈ 15.5 µg/mL) | 3.0 (≈ 7.76 µg/mL) | 3.0 (≈ 7.76 µg/mL) | 3.0 (≈ 7.76 µg/mL) | 3.0 (≈ 7.76 µg/mL) | 3.0 (≈ 7.76 µg/mL) | 3.0 (≈ 7.76 µg/mL) | 98 | 3.0 (≈ 7.76 µg/mL) | 1.5 (≈ 3.88 µg/mL) | 3.0 (≈ 7.76 µg/mL) | 3.0 (≈ 7.76 µg/mL) | 3.0 (≈ 7.76 µg/mL) | 30.5 (≈ 78.9 µg/mL) | Hemolytic activity Fold improvement in HC50 [14]: 54 fold; Hemolytic activity HC50, 18 hours (Figure 8 comparison) ([14]; 18 hours at 37 °C, human red blood cells, Figure 8, 100% control 0.1% Triton-X 100): 115 µM |
| CC[C@@H](C)[C@@H](NC(=O)CNC(=O)[C@@H](CCCNC(=N)N)NC(=O)[C@@H](Cc1ccccc1)NC(=O)[C@H](NC(=O)[C@@H](Cc1c[nH]cn1)NC(=O)[C@@H](Cc1c[nH]cn1)NC(=O)[C@@H](Cc1ccccc1)NC(=O)[C@H](N)Cc1ccccc1)[C@H](C)CC)C(=O)N[C@@H](C(=O)N[C@H](Cc1c[nH]cn1)C(=O)N[C@H](CCCCN)C(=O)NCC(=O)N[C@H](CCCCN)C(=O)N[C@@H](C(=O)N[C@@H](C(=O)N[C@H](Cc1c[nH]cn1)C(=O)N[C@H](CCCNC(=N)N)C(=O)N[C@H](CC(C)C)C(=O)N[C@@H](C(=O)N[C@@H](C(=O)NCC(N)=O)[C@H](C)O)C(C)C)[C@H](C)CC)[C@H](C)O)C(C)C [D-Piscidin 1 V12K] (H-[dF][dF][dH][dH][dI][dF][dR]G[dI][dV][dH][dK]G[dK][dT][dI][dH][dR][dL][dV][dT]G-NH2) | 24.0 (≈ 62.4 µg/mL) | 24.0 (≈ 62.4 µg/mL) | 6.0 (≈ 15.6 µg/mL) | 24.0 (≈ 62.4 µg/mL) | 24.0 (≈ 62.4 µg/mL) | 12.0 (≈ 31.2 µg/mL) | 3.0 (≈ 7.8 µg/mL) | 3.0 (≈ 7.8 µg/mL) | 1.5 (≈ 3.9 µg/mL) | 3.0 (≈ 7.8 µg/mL) | 3.0 (≈ 7.8 µg/mL) | 3.0 (≈ 7.8 µg/mL) | 2.8 (≈ 7.28 µg/mL) | 35 | 3.0 (≈ 7.8 µg/mL) | 3.0 (≈ 7.8 µg/mL) | 3.0 (≈ 7.8 µg/mL) | 3.0 (≈ 7.8 µg/mL) | 3.0 (≈ 7.8 µg/mL) | 17.0 (≈ 44.2 µg/mL) | – |
| CC[C@@H](C)[C@@H](NC(=O)CNC(=O)[C@@H](CCCNC(=N)N)NC(=O)[C@@H](Cc1ccccc1)NC(=O)[C@H](NC(=O)[C@@H](Cc1c[nH]cn1)NC(=O)[C@@H](Cc1c[nH]cn1)NC(=O)[C@@H](Cc1ccccc1)NC(=O)[C@H](N)Cc1ccccc1)[C@H](C)CC)C(=O)N[C@@H](C(=O)N[C@H](Cc1c[nH]cn1)C(=O)N[C@@H](C(=O)NCC(=O)N[C@H](CCCCN)C(=O)N[C@@H](C(=O)N[C@@H](C(=O)N[C@H](Cc1c[nH]cn1)C(=O)N[C@H](CCCNC(=N)N)C(=O)N[C@H](CC(C)C)C(=O)N[C@@H](C(=O)N[C@@H](C(=O)NCC(N)=O)[C@H](C)O)C(C)C)[C@H](C)CC)[C@H](C)O)C(C)C)C(C)C [D-Piscidin 1] (H-[dF][dF][dH][dH][dI][dF][dR]G[dI][dV][dH][dV]G[dK][dT][dI][dH][dR][dL][dV][dT]G-NH2) | 24.3 (≈ 62.5 µg/mL) | 24.3 (≈ 62.5 µg/mL) | 12.2 (≈ 31.4 µg/mL) | 24.3 (≈ 62.5 µg/mL) | 24.3 (≈ 62.5 µg/mL) | 12.2 (≈ 31.4 µg/mL) | 6.1 (≈ 15.7 µg/mL) | 1.5 (≈ 3.86 µg/mL) | 1.5 (≈ 3.86 µg/mL) | 3.0 (≈ 7.71 µg/mL) | 3.0 (≈ 7.71 µg/mL) | 3.0 (≈ 7.71 µg/mL) | 2.8 (≈ 7.2 µg/mL) | 1.8 | 3.0 (≈ 7.71 µg/mL) | 3.0 (≈ 7.71 µg/mL) | 3.0 (≈ 7.71 µg/mL) | 3.0 (≈ 7.71 µg/mL) | 3.0 (≈ 7.71 µg/mL) | 19.3 (≈ 49.6 µg/mL) | Hemolytic activity Fold improvement in HC50 [14]: 1.0 fold |
